From patent US11117883B2 (Ariad Pharmaceuticals, Inc., priority 2016, dated 2021)

Tests used:
[1] = target: T1, BAF3 FL KIT EX11DEL (Homo sapiens, UniProt P10721, cells depend on it, form not given); experiment: c-Kit assay: Ba/F3 KIT mutant viability (Cell Titer-Glo, 72 hours); assay type: cell-based; settings: viability after 72 hours
T1 construct: "BAF3 FL KIT EX11DEL"
Protocol: (§1) KIT cDNAs were synthesized by GenScript and cloned into the pLVX-IRES-Puro vector (Clontech). Viral particles were produced by transfecting pLVX-IRES-puro vectors containing KIT mutant genes into HEK293 cells (Invitrogen) using the Trans-Lentiviral ORF Packaging Kit (Thermo Scientific). 48 hours post-transfection, virus-containing supernatants were harvested and incubated for another 48-72 hours with parental Ba/F3 cells (DSMZ) in the presence of 10 ng/mL […] (R&D Systems). Transduced Ba/F3 cells were then selected by IL-3 withdrawal and puromycin (0.5-1 μg/mL, Invitrogen).
(§2) Cell lines (i.e., EX11DEL, EX11DEL/D816H, EX11DEL/T670I, and EX11DEL/V654A) were plated into 384 well plates using RPMI 1640 supplemented with 10% FBS at densities that produced linear growth and incubated at 37° C. in 5% (v/v) CO2. Cells were treated with eight concentrations of compound over a 4-fold dilution (10 μM to 0.61 nM) and viability was assessed using Cell Titer-Glo assay (Promega) after 72 hours. Data were plotted as percent viability relative to vehicle-treated cells. Dose-responses curves were generated and used to calculate IC50 values.

[2] = target: T2, BAF3 FL KIT EX11DEL/D816H (Homo sapiens, UniProt P10721, D816H, cells depend on it, form not given); experiment: as above; assay type: cell-based; settings: viability after 72 hours
T2 construct: "BAF3 FL KIT EX11DEL/ D816H"
Protocol: as §1, §2

[3] = target: T3, BAF3 FL KIT EX11DEL/T6701 (Homo sapiens, UniProt P10721, T670I, cells depend on it, form not given); experiment: as above; assay type: cell-based; settings: EX11DEL/T6701, viability after 72 hours
T3 construct: "BAF3 FL KIT EX11DEL/ T6701"
Protocol: as §1, §2

[4] = target: T4, BAF3 FL KIT EX11DEL/V654A (Homo sapiens, UniProt P10721, V654A, cells depend on it, form not given); experiment: as above; assay type: cell-based; settings: viability after 72 hours
T4 construct: "BAF3 FL KIT EX11DEL/ V654A"
Protocol: as §1, §2

[5] = test system: gastrointestinal stromal tumors (GIST); settings: third line therapy; cited from earlier work

T2 sequence (P10721 with tags, fused parts or gaps DEL557-558/D816H, form open): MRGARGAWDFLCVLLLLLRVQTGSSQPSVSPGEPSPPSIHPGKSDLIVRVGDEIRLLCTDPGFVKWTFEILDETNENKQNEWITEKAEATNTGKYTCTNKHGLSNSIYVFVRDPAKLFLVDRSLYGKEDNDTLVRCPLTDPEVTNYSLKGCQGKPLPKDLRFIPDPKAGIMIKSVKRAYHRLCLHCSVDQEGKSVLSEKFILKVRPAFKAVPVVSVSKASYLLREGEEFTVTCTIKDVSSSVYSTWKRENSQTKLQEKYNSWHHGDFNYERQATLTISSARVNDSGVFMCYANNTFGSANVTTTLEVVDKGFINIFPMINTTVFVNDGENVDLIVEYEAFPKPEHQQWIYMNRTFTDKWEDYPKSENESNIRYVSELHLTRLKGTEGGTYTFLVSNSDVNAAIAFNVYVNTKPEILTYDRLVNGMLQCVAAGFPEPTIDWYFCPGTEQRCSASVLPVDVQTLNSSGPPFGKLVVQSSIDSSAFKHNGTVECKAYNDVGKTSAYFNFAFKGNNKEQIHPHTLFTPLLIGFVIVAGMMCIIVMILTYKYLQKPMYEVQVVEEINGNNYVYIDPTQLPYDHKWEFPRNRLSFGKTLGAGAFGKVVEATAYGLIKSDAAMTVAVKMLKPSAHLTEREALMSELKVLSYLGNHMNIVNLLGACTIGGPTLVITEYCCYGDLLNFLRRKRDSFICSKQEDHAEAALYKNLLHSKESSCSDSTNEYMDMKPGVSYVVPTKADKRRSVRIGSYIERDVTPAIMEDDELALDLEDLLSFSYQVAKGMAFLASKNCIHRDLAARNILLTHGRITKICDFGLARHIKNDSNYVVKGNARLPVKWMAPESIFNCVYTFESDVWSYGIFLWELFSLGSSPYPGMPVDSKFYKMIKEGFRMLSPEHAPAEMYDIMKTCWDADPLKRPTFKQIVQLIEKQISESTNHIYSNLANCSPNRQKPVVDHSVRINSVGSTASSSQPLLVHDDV
T1 sequence (P10721 with tags, fused parts or gaps DEL557-558): as the sequence (P10721 with tags, fused parts or gaps DEL557-558/D816H, form open) above, with H814D counted along it
T3 sequence (P10721 with tags, fused parts or gaps DEL557-558/T670I, form open): as the sequence (P10721 with tags, fused parts or gaps DEL557-558/D816H, form open) above, with T668I, H814D counted along it
T4 sequence (P10721 with tags, fused parts or gaps DEL557-558/V654A, form open): as the sequence (P10721 with tags, fused parts or gaps DEL557-558/D816H, form open) above, with V652A, H814D counted along it

Compound | GI50 [1] [nM] | GI50 [2] [nM] | GI50 [3] [nM] | GI50 [4] [nM] | ORR [5] [%] | median PFS [5] [months]
Cc1ccc(NC(=O)c2ccc(CN3CCN(C)CC3)c(C(F)(F)F)c2)cc1C#Cc1ccc2c(c1)ncn2-c1cnn(C)c1 [Compound I-46, N-(4-methyl-3-((1-(1-methyl-1H-pyrazol-4-yl)-1H-benzo[d]imidazol-5-yl)ethynyl)phenyl)-4-((4-methylpiperazin-1-yl)methyl)-3-(trifluoromethyl)benzamide] | 10 to 50 | 100 to 10000 | 50 to 100 | 100 to 10000 | – | –
Cc1ccc(NC(=O)c2ccc(CN3CCCC3)c(C(F)(F)F)c2)cc1C#Cc1ccc2c(c1)ncn2-c1cnn(C)c1 [Compound I-47, N-(4-methyl-3-((1-(1-methyl-1H-pyrazol-4-yl)-1H-benzo[d]imidazol-5-yl)ethynyl)phenyl)-4-(pyrrolidin-1-ylmethyl)-3-(trifluoromethyl)benzamide] | 10 to 50 | 100 to 10000 | 50 to 100 | 100 to 10000 | – | –
Cc1ccc(NC(=O)c2ccc(CN3CCOCC3)c(C(F)(F)F)c2)cc1C#Cc1ccc2c(c1)ncn2-c1cnn(C)c1 [Compound I-48, N-(4-methyl-3-((1-(1-methyl-1H-pyrazol-4-yl)-1H-benzo[d]imidazol-5-yl)ethynyl)phenyl)-4-(morpholinomethyl)-3-(trifluoromethyl)benzamide] | < 10 | 50 to 100 | 10 to 50 | 50 to 100 | – | –
Cn1cc(-n2cnc3cc(C#Cc4cccc(NC(=O)c5cc(C(F)(F)F)ccn5)c4)ccc32)cn1 [Compound I-49, N-(3-((1-(1-methyl-1H-pyrazol-4-yl)-1H-benzo[d]imidazol-5-yl)ethynyl)phenyl)-4-(trifluoromethyl)picolinamide] | < 10 | 100 to 10000 | 10 to 50 | 50 to 100 | – | –
Cn1cc(-n2cnc3cc(C#Cc4cccc(C(=O)Nc5cc(C(F)(F)F)ccn5)c4)ccc32)cn1 [Compound I-50, 3-((1-(1-methyl-1H-pyrazol-4-yl)-1H-benzo[d]imidazol-5-yl)ethynyl)-N-(4-(trifluoromethyl)pyridin-2-yl)benzamide] | < 10 | 100 to 10000 | < 10 | 50 to 100 | – | –
Cn1cc(-n2cnc3cc(C#Cc4cc(C(=O)Nc5cc(C(F)(F)F)ccn5)ccc4F)ccc32)cn1 [Compound I-51, 4-fluoro-3-((1-(1-methyl-1H-pyrazol-4-yl)-1H-benzo[d]imidazol-5-yl)ethynyl)-N-(4-(trifluoromethyl)pyridin-2-yl)benzamide] | < 10 | 100 to 10000 | < 10 | 10 to 50 | – | –
Cn1cc(-n2cnc3cc(C#Cc4cc(NC(=O)c5cc(C(F)(F)F)ccn5)ccc4F)ccc32)cn1 [Compound I-52, N-(4-fluoro-3-((1-(1-methyl-1H-pyrazol-4-yl)-1H-benzo[d]imidazol-5-yl)ethynyl)phenyl)-4-(trifluoromethyl)picolinamide] | < 10 | 100 to 10000 | < 10 | 50 to 100 | – | –
CNC(=O)c1cc(Oc2ccc(NC(=O)Nc3ccc(Cl)c(C(F)(F)F)c3)c(F)c2)ccn1 [Regorafenib] | – | – | – | – | 4.5 | 4.8
